Reference: patent publication US20030118627A1 (DABUR RESEARCH FOUNDATION, priority 2001, published 2003)

Experiments:
MOLT 4 = assay: MTT cytotoxicity assay, MOLT 4 leukemia; type: cell-based; settings: Homo sapiens
Method: (§1) Briefly, a […] MTT cytotoxicity assay was performed, which is based on the principle of uptake of MTT (3-(4,5-dimethylthiazol-2-yl)-2,5-diphenyl tetrazolium bromide), a tetrazolium salt, by the metabolically active cells where it is metabolized by active mitochondria into a blue colored formazan product that is read spectrophoto-metrically. MTT was dissolved in phosphate buffered saline with a pH of 7.4 to obtain an MTT concentration of 5 mg/ml; the resulting mixture was filtered through a 0.22 micron filter to sterilize and remove a small amount of insoluble residue. For each type of tumor cell, 20,000 to 50,000 cells were seeded in a 96-well culture plate and incubated with the combination in a CO2 incubator for 24 hours. […] The assay was terminated after 24 hours by adding 100 ug (20 ul) of MTT to each well, then incubating for additional one hour, and finally adding 50 ul of 10% SDS-0.01N HCl to each well to lyse the cells and dissolve formazan. After incubating for one hour, the plate was read spectrophotometrically at 540 nm and the percentage cytotoxicity calculated.

293 = assay: MTT cytotoxicity assay, 293 kidney; type: cell-based; settings: Homo sapiens, HEK293, 24 h, read-out: ED50 values of cytotoxicity
Method: as §1

PA 1 = assay: MTT cytotoxicity assay, PA 1 ovary; type: cell-based; settings: Homo sapiens
Method: as §1

Miapaca2 = assay: MTT cytotoxicity assay, Miapaca2 pancreas; type: cell-based; settings: Homo sapiens
Method: as §1

L132 = assay: MTT cytotoxicity assay, L132 lung; type: cell-based; settings: Homo sapiens
Method: as §1

PTC = assay: MTT cytotoxicity assay, PTC colon; type: cell-based; settings: Homo sapiens
Method: as §1

U87MG = assay: MTT cytotoxicity assay, U87MG glioblastoma; type: cell-based; settings: Homo sapiens, U-87 MG, 24 h, read-out: ED50 values of cytotoxicity
Method: as §1

MCF7 = assay: MTT cytotoxicity assay, MCF7 breast; type: cell-based; settings: Homo sapiens
Method: as §1

INT 407 = assay: MTT cytotoxicity assay, INT 407 intestine; type: cell-based; settings: Homo sapiens, 24 h, read-out: ED50 values of cytotoxicity
Method: as §1

KB = assay: MTT cytotoxicity assay, KB oral; type: cell-based; settings: Homo sapiens, 24 h, read-out: ED50 values of cytotoxicity
Method: as §1

Swiss albino mice = settings: both, mouse, in vivo, po, 15 days
Method: Acute toxicity studies were performed using the oral route of administration.
A batch of 5 female and 5 male mice each was administered the test substance by oral route. […] Another batch of 5 female and 5 male served as control.
Observations were made three times on the day of dosing and twice daily thereafter for the remainder of 14 days or until reversible toxic signs or symptoms subsided. All gross visible toxic signs and symptoms were recorded. Body weights were recorded prior to dosing and weekly thereafter.

DU145 = assay: MTT cytotoxicity assay, DU145 prostate; type: cell-based; settings: Homo sapiens
Method: as §1

Hep2 = assay: MTT cytotoxicity assay, Hep2 larynx; type: cell-based; settings: Homo sapiens, HEp-2, 24 h, read-out: ED50 values of cytotoxicity
Method: as §1

[1] = 1.0 mM, read-out: Percent cytotoxicity
[2] = 2.5 mM, read-out: Percent cytotoxicity
[3] = 4 mM, read-out: Percent cytotoxicity
[4] = 5 mM, read-out: Percent cytotoxicity
[5] = 10 mM, read-out: Percent cytotoxicity
[6] = 24 h, read-out: ED50 values of cytotoxicity

## COC(=O)C1CCC(=O)N1C(OC(C)=O)C(C)=O (stereo not drawn) [MGC-4, N-(1-acetoxy-2-ketopropyl)-methylpyroglutamate]
MOLT 4; 24 h, Molt 4 Leukemia, read-out: ED50 values of cytotoxicity
  IC50: 1500 ± 200 µM
MOLT 4; MOLT 4 Leukemia, 1.0 mM, read-out: Percent cytotoxicity
  cytotoxicity at 1000 µM: 36.9 ± 3.9%
MOLT 4; MOLT 4 Leukemia, 2.5 mM, read-out: Percent cytotoxicity
  cytotoxicity at 2500 µM: 57.9 ± 3.1%
MOLT 4; MOLT 4 Leukemia, 4 mM, read-out: Percent cytotoxicity
  cytotoxicity at 4000 µM: 78.9 ± 4.9%
MOLT 4; MOLT 4 Leukemia, 5 mM, read-out: Percent cytotoxicity
  cytotoxicity at 5000 µM: 88.4 ± 7.5%
MOLT 4; MOLT 4 Leukemia, 10 mM, read-out: Percent cytotoxicity
  cytotoxicity at 10000 µM: 85.9 ± 7.3%
293
  IC50: 1400 ± 100 µM
PA 1; 24 h, PA 1 Ovarian, read-out: ED50 values of cytotoxicity
  IC50: 1600 ± 200 µM
PA 1; PA 1 Ovary, 1.0 mM, read-out: Percent cytotoxicity
  cytotoxicity at 1000 µM: 28.9 ± 3.2%
PA 1; PA 1 Ovary, 2.5 mM, read-out: Percent cytotoxicity
  cytotoxicity at 2500 µM: 67.9 ± 4.9%
PA 1; PA 1 Ovary, 4 mM, read-out: Percent cytotoxicity
  cytotoxicity at 4000 µM: 87.9 ± 6.4%
PA 1; PA 1 Ovary, 5 mM, read-out: Percent cytotoxicity
  cytotoxicity at 5000 µM: 88.6 ± 6.9%
PA 1; PA 1 Ovary, 10 mM, read-out: Percent cytotoxicity
  cytotoxicity at 10000 µM: 88 ± 6.9%
Miapaca2; MIA PaCa-2, 1.0 mM, read-out: Percent cytotoxicity
  cytotoxicity at 1000 µM: 0%
Miapaca2; MIA PaCa-2, 2.5 mM, read-out: Percent cytotoxicity
  cytotoxicity at 2500 µM: 3.9 ± 0.5%
Miapaca2; MIA PaCa-2, 4 mM, read-out: Percent cytotoxicity
  cytotoxicity at 4000 µM: 46.8 ± 4.9%
Miapaca2; MIA PaCa-2, 5 mM, read-out: Percent cytotoxicity
  cytotoxicity at 5000 µM: 57.9 ± 5.9%
Miapaca2; MIA PaCa-2, 10 mM, read-out: Percent cytotoxicity
  cytotoxicity at 10000 µM: 79.4 ± 4.8%
Miapaca2; MIA PaCa-2, 24 h, read-out: ED50 values of cytotoxicity
  IC50: 4200 ± 1100 µM
L132; [1]
  cytotoxicity at 1000 µM: 0%
L132; [2]
  cytotoxicity at 2500 µM: 0%
L132; [3]
  cytotoxicity at 4000 µM: 0%
L132; [4]
  cytotoxicity at 5000 µM: 4.9 ± 0.6%
L132; [5]
  cytotoxicity at 10000 µM: 37.9 ± 3.5%
L132; [6]
  IC50: > 5000 µM
PTC; [1]
  cytotoxicity at 1000 µM: 23.9 ± 3%
PTC; [2]
  cytotoxicity at 2500 µM: 39 ± 5.2%
PTC; [3]
  cytotoxicity at 4000 µM: 56.9 ± 5.9%
PTC; [4]
  cytotoxicity at 5000 µM: 84.2 ± 7.4%
PTC; [5]
  cytotoxicity at 10000 µM: 87.3 ± 6%
PTC; [6]
  IC50: 3800 ± 1100 µM
U87MG
  IC50: 2400 ± 500 µM
MCF7; MCF7, 24 h, MCF 7 Breast, read-out: ED50 values of cytotoxicity
  IC50: > 5000 µM
MCF7; MCF7 breast, 1.0 mM, read-out: Percent cytotoxicity
  cytotoxicity at 1000 µM: 0%
MCF7; MCF7 breast, 2.5 mM, read-out: Percent cytotoxicity
  cytotoxicity at 2500 µM: 0%
MCF7; MCF7 breast, 4 mM, read-out: Percent cytotoxicity
  cytotoxicity at 4000 µM: 3.8 ± 0.4%
MCF7; MCF7 breast, 5 mM, read-out: Percent cytotoxicity
  cytotoxicity at 5000 µM: 23.8 ± 0.8%
MCF7; MCF7 breast, 10 mM, read-out: Percent cytotoxicity
  cytotoxicity at 10000 µM: 31.9 ± 2.9%
INT 407
  IC50: 2300 ± 1100 µM
KB
  IC50: 1550 ± 300 µM
Swiss albino mice
  safe dose: 100 mg
DU145; DU-145, 1.0 mM, read-out: Percent cytotoxicity
  cytotoxicity at 1000 µM: 28.9 ± 4.2%
DU145; DU-145, 2.5 mM, read-out: Percent cytotoxicity
  cytotoxicity at 2500 µM: 58.9 ± 4.9%
DU145; DU-145, 4 mM, read-out: Percent cytotoxicity
  cytotoxicity at 4000 µM: 82.1 ± 7.3%
DU145; DU-145, 5 mM, read-out: Percent cytotoxicity
  cytotoxicity at 5000 µM: 85.6 ± 7.3%
DU145; DU-145, 10 mM, read-out: Percent cytotoxicity
  cytotoxicity at 10000 µM: 87.9 ± 7.3%
DU145; DU-145, 24 h, read-out: ED50 values of cytotoxicity
  IC50: 1800 ± 300 µM
Hep2
  IC50: 3200 ± 800 µM
